Several values for one entry are separate records, joined by “and”; a condition that tells them apart may be missing. Equal values may be shown once. Entries after “also recorded” stand apart in the source; their conditions may differ. Where a name gives a salt, the structure may show the parent alone.
What was measured:
[1] = Change of urine pH with time after taking basic fuchsine; assay type: in vivo, human; conditions: for Urine pH value, Average: average of 9 patients, before drug 6; for Patent's urine pH value: individual patient (vegetarian), hydrochloride
Procedure: Therefore, the infected body, which is weakly acidic, is recovered to become weakly basic and this is beneficial to increasing the body's immunity such that Mycobacterium tuberculosis can be inhibited or removed. Because the integration of lysosomes inside macrophage with phagosome cannot be prevented, the bacteria can be removed. The changes in urine pH after taking basic fuchsine is illustrated in Table 2 and FIG. 1:
Remarks: The urine pH value reached the peak value at 2-3 hours after taking drug, and the peak period can sustain for 3-4 hours, then return to normal at 5-6 hours after taking drug.

[2] = tested on: Mycobacterium tuberculosis; assay: Drug Susceptibility Testing on Lowenstein-Jensen medium; assay type: cell-based
Procedure: Drug Susceptibility Testing
(II) Culture Method: Lowenstein-Jensen medium (Improved method)
KH2PO4: 2.4 g; MgSO4.7H2O 0.24 g; magnesium citrate: 0.6 g; asparagine: 3.6 g; glycerin: 12 ml; distilled water: 600 ml; potato starch: 30 g; fresh whole egg liquid: 1000 ml; 2% malachite green solution: 20 ml
4. Drug: 2% basic fuchsine aqueous solution: 100 ml
Add water to KH2PO4, MgSO4.7H2O, magnesium citrate, asparagine and glycerin, dissolve through heating in a boiling water bath, then add potato starch and continue heating in water bath for 30 minutes, stir continuously to form a uniform paste. After cooling to about 60° C., add 1000 ml fresh whole egg liquid and 20 ml 2% malachite green solution, mix thoroughly and then filter by double-layered gauze, then dispensed into test tube with screw cap. 7 ml of the prepared solution is added to each test tube, then add the 2% basic fuchsine solution according to a specific proportion into the test tube (see Table 3 for the adding amount), then place the test tube into the 85% steam incubator for 90 minutes, cooling to 60° C. or below and then place the test tube inclinedly into the biological safety cabinet (also called purification station), thereby the culture medium is cooled to solidify and form an incline surface. Put 10^−2/ml living bacilli solution of Mycobacterium tuberculosis to the incline surface of the culture medium. The living bacilli solution for each tube is 0.1 ml. The concentration of bacilli solution in the culture medium is 10^−3 mg/ml. Place in Digital Biochemical Incubator to culture. After culture for 5 weeks, no bacteria growth refers to drug susceptibility, continue bacteria growth refers to drug non-susceptibility (See Table 4 for testing results).

M. tuberculosis = assay: Basic Fuchsine for treatment of Tuberculosis (patients); assay type: in vivo, human; conditions: for Drug treatment after 1 month (TB status, symptoms): individual TB patient, capsule 500 mg (basic fuchsine:ground rice 3:2), 1-2 capsule/day oral, hydrochloride
Procedure: Basic Fuchsine for treatment of Tuberculosis
Dosage for patient: Capsule, 500 mg/capsule, where the weight ratio of basic fuchsine to ground rice is 3:2, each patient takes 1˜2 capsule/day.
Method of administration: Every morning, before breakfast, take the capsule, three month as one treatment course, see Table 5 for patients' records, see Table 6 for treatment results.
1. All patients were diagnosis and confirmed by standard TB hospital or TB prevention and treatment center, and all patients encountered disease recurrence after conventional standard drug treatment.
3. Before drug treatment with basic fuchsine drug, all patients have obvious symptoms: body weakness, discomfort, fever, cough, night sweat, ascites, blood spitting, blood vomiting, etc. (skeletal TB patient experience pain, some experience amenorrhea).

Leprosy ulcers = assay: Basic Fuchsine for Treatment of Leprosy (patients); assay type: in vivo, human; conditions: individual leprosy ulcer patient, treatment method External
blood cells = conditions: human, in vivo, po
Description: After taking basic fuchsine, the basic fuchsine activity over time can be observed through the blood phenomenon at different times.
Healthy individual as normal subject for observation
Patient recovered from the disease who volunteer to testing subject as volunteer subject
Binocular microscope xsp-12G model
Wright-Giemsa stain solution (available in the market)
Phosphate buffer (available in the market)
Obtain peripheral blood smear from normal subject and volunteer subject (normal control blood film, standby use)
Obtain peripheral blood smear from volunteer subject at different time after taking fuchsine (oral fuchsine blood film, standby use)
After the last blood sampling is complete, carrying staining together with the blood film before taking fuchsine orally of volunteer subject and the peripheral blood film of normal subject
V. observe oral fuchsine blood film under microscope with 100× objective lens (oil immersion) and 12.5× eyepiece, real object is viewed under magnification at 1250 times and the results are shown in Table 3.

[3] = Toxicity Test of Basic Fuchsine in guinea pigs; conditions: guinea pigs, 8, 6 and 4 mg/kg body weight/d, once per day, 21 days
Description: Materials: 24 white guinea pigs, purchased from Shenyang Pharmaceutical University, regular feeding; Basic fuchsine, from Tianjin Ju Hua Chemical Company Limited.
Matching and grouping of experimental animals: randomly divided into 4 groups (each group includes 6 counts, equal number of male and female), namely, control, high, medium, low fuchsine dosage group.
Method of administration: For each guinea pig, administered one time per day at a fixed time in the morning, the dosage for high, medium, low fuchsine dosage group are 8 mg/kg body weight/d, 6 mg/kg body weight/d, and 4 mg/kg body weight/d respectively; the drug administration period is 21 days, observe 3˜4 times per day, observe the guinea pig by spirit condition, appetite, gloss level of skin and hairs, physical condition, alertness and ability to escape.

Cc1cc(C(=C2C=CC(=N)C=C2)c2ccc(N)cc2)ccc1N [basic fuchsine, rosaniline hydrochloride]
Time at which urine pH value reached the peak value ([1]; after taking drug): 2-3 hours
Time of return of urine pH to normal ([1]; after taking drug): 5-6 hours
Time the urine pH peak period can sustain ([1]; after taking drug): 3-4 hours
Urine pH value, Average ([1]; After drug 1 h): 6.5
Urine pH value, Average ([1]; After drug 2 h): 7
Urine pH value, Average ([1]; After drug 3 h): 6.5
Urine pH value, Average ([1]; After drug 4 h): 6.5
Urine pH value, Average ([1]; After drug 5 h): 6
Urine pH value, Average ([1]; After drug 6 h): 6
Patent's urine pH value ([1]; After drug 1 h): 6 (2×) and 6.5 (5×) and 7 (2×)
Patent's urine pH value ([1]; After drug 2 h): 6.5 (2×) and 7 (5×) and 7.5 (2×)
Patent's urine pH value ([1]; After drug 3 h): 6 (2×) and 6.5 (5×) and 7 (2×)
Patent's urine pH value ([1]; After drug 4 h): 6 (2×) and 6.5 (5×) and 7 (2×)
Patent's urine pH value ([1]; After drug 5 h): 5.5 (2×) and 6 (5×) and 6.5 (2×)
Patent's urine pH value ([1]; After drug 6 h): 5.5 (2×) and 6 (5×) and 6.5 (2×)
Testing results (bacteria growth) ([2]; Tube 1, 0.7 ml 2% basic fuchsine solution, final dilution factor 500, 5 weeks at 36 C): Grow
Testing results (bacteria growth) ([2]; Tube 2, 0.525 ml 2% basic fuchsine solution, final dilution factor 750, 5 weeks at 36 C): Grow
Testing results (bacteria growth) ([2]; Tube 3, 0.35 ml 2% basic fuchsine solution, final dilution factor 1000, 5 weeks at 36 C): Grow
M. tuberculosis (acid-fast bacilli) in sputum after taking basic fuchsine for one month (M. tuberculosis; TB patients): no M. tuberculosis is found in sputum
Patients' blood test for liver and kidney after taking basic fuchsine (M. tuberculosis; TB patients): normal
TB symptoms after taking basic fuchsine for three months (M. tuberculosis; TB patients): TB symptoms are eliminated
X-ray after taking basic fuchsine for six months (M. tuberculosis; TB patients): recovery are confirmed through X-ray
Adverse reactions / side effect during the course of treatment (M. tuberculosis; all cases): no side effect is observed in all cases
Drug treatment after 1 month (TB status, symptoms) (M. tuberculosis; 1 capsule/day): TB Improved (−); also recorded: Improved TB (−)
Drug treatment after 1 month (TB status, symptoms) (M. tuberculosis; 2 capsule/day): Pain reduced
Symptoms after taking basic fuchsine for one month (M. tuberculosis; majority of TB patients): Symptoms are significantly reduces
Liver or kidney damage (M. tuberculosis; patients taking drug for more than two years): no liver or kidney damages is observed
Recurrence (M. tuberculosis; patients who are recovered): no single occurrence of recurrence
Remarks (outcome) (Leprosy ulcers): Absorbed,
Time remained inside the cell after absorption into blood (blood cells): 2 to 4 h
Observation of spirit condition, appetite, skin and hairs, physical condition, alertness, ability to escape [3]: No changes is observed

Source: patent US9782366B2, “Drug for killing acid-fast (red) bacillus” (priority 2013, dated 2017)
